Source: patent publication US20160030407A1, “Method of Treating Inflammatory Lung Disease” (priority 2010, published 2016)

Columns and labels:
[1] = system: phosphorylated p65 (NFκB); test: p65 phosphorylation in brain after intracranial TNFα; assay type: in vivo, mice (B6/SJL); details: mice, 2 mg/kg i.p., normalized to actin
Experimental: After 5 minutes, mice were intracranially injected with 0.5 mg of TNFα. Mice were euthanized ten minutes after the intracranial injection. The portion of the brain surrounding the intracranial site of injection was collected, and proteins were extracted. Phosphorylation of p65 was measured with an antibody towards phosphorylated p65.

[2] = Brain extract concentrations after single i.v. bolus; assay type: in vivo, Sprague-Dawley rats; details: for Concentration in rat brain extract: individual rats
Experimental: (§1) Six rats (3 males and 3 females) were dosed per dose group. […] Plasma and brain homogenates were stored at −80° C. until analysis.
(§2) An additional 48 rats (24 males and 24 females) received a single intravenous dose via the tail vein at the same doses as mentioned above. At 30 and 360 minutes post administration, 6 rats (3 males and 3 females) per dose group, per time point were euthanized, bled via cardiac puncture, and perfused, and brains were collected. The brains were homogenized. Blood was spun, and plasma was collected. Plasma and brain homogenate were stored at −80° C.
(§3) The animals were weighed prior to dosing and received a single i.v. dose of either test compound at a volume of 5 mL/kg. Blood was collected via the venus plexus (retro-orbital) into tubes containing (K2) EDTA. No more than 0.5 mL was collected per time point. […] The brain was removed, weighed, homogenized in sterile 0.9% saline at a volume equal to its weight, and stored at −80° C.
(§4) The amount of the test agent in the supernatant was determined by liquid chromatography tandem mass spectrometry (LC/MS/MS).
(§5) Analysis. Samples were analyzed by LC/MS/MS using an Agilent 6410 mass spectrometer coupled with an Agilent 1200 high pressure liquid chromatography (HPLC) and a CTC PAL chilled autosampler, all controlled by MassHunter software (Agilent). After separation on a hydrophilic interaction liquid chromatography (HILIC) HPLC column (Sepax) using an acetonitrile-ammonium acetate/acetic acid gradient system, peaks were analyzed by mass spectrometry (MS) using ESI ionization in multiple reaction monitoring (MRM) mode. MassHunter software was used to calculate the concentration of the test compounds in samples from the peak area using the appropriate calibration curves.

[3] = Plasma toxicokinetics after single i.v. bolus; assay type: in vivo, Sprague-Dawley rats; details: for Concentration in rat plasma: Anatabine 0.1 mg/kg dose group, individual rats; for Avg. Conc. (Combined Male and Female) / Avg. Conc. (Male or Female): Rat Plasma; for half-life: Sprague-Dawley, iv
Experimental: as §1, §2
Four aliquots of each dose level formulation were collected and stored at −80° C. The test compound, corresponding dose level, number of animals, and sample collection times for Phase I of the study are shown in Table 3. The test compound, corresponding dose level, number of animals, and sample collection times for Phase II of the study are shown in Table 4. The physical signs of each animal were monitored following administration of the test compound.
as §3
Plasma was separated according to the instructions for MICROTAINER® brand collection tubes (3 minutes, 2000×g). Plasma was decanted into microfuge tubes and stored at −80° C. Remaining test compound was stored at −80° C.
as §4, §5

[4] = rat plasma, single i.v. 0.1 mg/kg, female
[5] = rat plasma, single i.v. 0.75 mg/kg, male
[6] = rat plasma, single i.v. 0.1 mg/kg, M + F
[7] = rat plasma, single i.v. 0.1 mg/kg, male
[8] = rat plasma, single i.v. 0.75 mg/kg, M + F
[9] = rat plasma, single i.v. 0.75 mg/kg, female
[10] = rat plasma, single i.v. 1.0 mg/kg, M + F
[11] = rat plasma, single i.v. 1.0 mg/kg, female
[12] = rat plasma, single i.v. 1.0 mg/kg, male

For C1=CCC(c2cccnc2)NC1 (racemic) [Anatabine, 1,2,3,6-tetrahydro-[2,3′]bipyridinyl], the “p65 phosphorylation in brain” value [1] was “reduced p65 phosphorylation in mouse brain”, the “Concentration in rat brain extract” value ([2]; Anatabine 0.1 mg/kg dose group, time point 0.5 hr) was “<LLQ” and the “Concentration in rat brain extract” value ([2]; Anatabine 0.1 mg/kg dose group, time point 6 hr) was “<LLQ”. The “Concentration in rat brain extract” value ([2]; Anatabine 0.1 mg/kg dose group, time point 24 hr) was “<LLQ”, the “Concentration in rat brain extract” value ([2]; Anatabine 0.75 mg/kg dose group, time point 24 hr) was “<LLQ” and the “Concentration in rat brain extract” value ([2]; Anatabine 1.0 mg/kg dose group, time point 6 hr) was “<LLQ”. The “Concentration in rat brain extract” value ([2]; Anatabine 1.0 mg/kg dose group, time point 24 hr) was “<LLQ”, the “Avg. Conc. (Combined Male and Female)” value ([2]; Rat Brain, Anatabine 0.75 mg/kg, combined, 24 hr) was “<LLQ” and the “Avg. Conc. (Male or Female)” value ([2]; Rat Brain, Anatabine 0.75 mg/kg, female, 24 hr) was “<LLQ”. For the same compound, the “Avg. Conc. (Male or Female)” value ([2]; Rat Brain, Anatabine 0.75 mg/kg, male, 24 hr) was “<LLQ”, the “Avg. Conc. (Male or Female)” value ([2]; Rat Brain, Anatabine 1.0 mg/kg, female, 24 hr) was “<LLQ” and the “appearance in brain tissue” value ([2]; rat, following i.v. administration) was “rapidly appear in brain tissue”. For the same compound, the “Mean concentration in rat brain extracts” value ([2]; single i.v. 0.75 mg/kg, female, 24 hr) was “<LLQ”, the “Mean concentration in rat brain extracts” value ([2]; single i.v. 0.75 mg/kg, male, 24 hr) was “<LLQ” and the “Mean concentration in rat brain extracts” value ([2]; single i.v. 1.0 mg/kg, female, 24 hr) was “<LLQ”. The “Concentration in rat plasma” value ([3]; rat plasma, time point 4 hr) was “<LLQ”, the “Concentration in rat plasma” value ([3]; rat plasma, time point 6 hr) was “<LLQ” and the “Concentration in rat plasma” value ([3]; rat plasma, time point 8 hr) was “<LLQ”. The “Concentration in rat plasma” value ([3]; rat plasma, time point 24 hr) was “<LLQ”, the “Avg. Conc. (Combined Male and Female)” value ([3]; Anatabine 0.1 mg/kg, 8 hr) was “<LLQ” and the “Avg. Conc. (Combined Male and Female)” value ([3]; Anatabine 0.1 mg/kg, 24 hr) was “<LLQ”. For the same compound, the “Avg. Conc. (Male or Female)” value ([3]; Anatabine 0.1 mg/kg, female, 8 hr) was “<LLQ”, the “Avg. Conc. (Male or Female)” value ([3]; Anatabine 0.1 mg/kg, female, 24 hr) was “<LLQ” and the “Avg. Conc. (Male or Female)” value ([3]; Anatabine 0.1 mg/kg, male, 6 hr (1st line)) was “<LLQ”. For the same compound, the “Avg. Conc. (Male or Female)” value ([3]; Anatabine 0.1 mg/kg, male, 8 hr) was “<LLQ”, the “Avg. Conc. (Male or Female)” value ([3]; Anatabine 0.1 mg/kg, male, 24 hr) was “<LLQ” and the “Avg. Conc. (Combined Male and Female)” value ([3]; Anatabine 0.75 mg/kg, 24 hr) was “<LLQ”. For the same compound, the “Avg. Conc. (Male or Female)” value ([3]; Anatabine 0.75 mg/kg, female, 24 hr) was “<LLQ”, the “Avg. Conc. (Male or Female)” value ([3]; Anatabine 0.75 mg/kg, male, 24 hr) was “<LLQ” and the “Avg. Conc. (Combined Male and Female)” value ([3]; Anatabine 1.0 mg/kg, 24 hr) was “<LLQ”. The “Avg. Conc. (Male or Female)” value ([3]; Anatabine 1.0 mg/kg, female, 24 hr) was “<LLQ”, the “Avg. Conc. (Male or Female)” value ([3]; Anatabine 1.0 mg/kg, male, 24 hr) was “<LLQ” and the half-life [3, 4] was 1.64 ± 0.59 h. The half-life [3, 5] was 1.64 ± 0.12 h, the half-life ([3]; both sexes, rat plasma, single i.v. 0.75 mg/kg, M + F) was 1.68 ± 0.09 h and the half-life ([3]; both sexes, rat plasma, single i.v. 1.0 mg/kg, M + F) was 1.64 ± 0.25 h. The “apparent volume of distribution (VD) compared with nicotine” value ([3]; rat plasma, single i.v.) was “significantly greater than that of nicotine”, the “AUC0→∞” value [3, 6] was 35.0 ± 11.6 ng·h/mL and the VD [3, 6] was 6.08 ± 0.45 L/kg. The t1/2 [3, 6] was 1.44 ± 0.48 h, the “AUC0→∞” value [3, 4] was 37.9 ± 15.9 ng·h/mL and the VD [3, 4] was 6.52 ± 0.66 L/kg. For the same compound, the “AUC0→∞” value [3, 7] was 32.0 ± 7.7 ng·h/mL, the VD [3, 7] was 5.29 ± 0.49 L/kg and the t1/2 [3, 7] was 1.25 ± 0.32 h. For the same compound, the “AUC0→∞” value [3, 8] was 504.4 ± 63.5 ng·h/mL, the VD [3, 8] was 3.33 ± 0.13 L/kg and the “AUC0→∞” value [3, 9] was 544.5 ± 62.7 ng·h/mL. For the same compound, the VD [3, 9] was 3.19 ± 0.15 L/kg, the t1/2 [3, 9] was 1.73 ± 0.03 h and the “AUC0→∞” value [3, 5] was 464.4 ± 36.2 ng·h/mL. The VD [3, 5] was 3.48 ± 0.18 L/kg, the “AUC0→∞” value [3, 10] was 710.07 ± 88.4 ng·h/mL and the VD [3, 10] was 3.08 ± 0.16 L/kg. The “AUC0→∞” value [3, 11] was 788.9 ng·h/mL, the VD [3, 11] was 3.16 ± 0.15 L/kg and the t1/2 ([3]; rat plasma, single i.v. 1.0 mg/kg, female, 1 mg/kg) was 1.84 h. The “AUC0→∞” value [3, 12] was 631.3 ng·h/mL, the VD [3, 12] was 3.01 ± 0.12 L/kg and the t1/2 ([3]; rat plasma, single i.v. 1.0 mg/kg, male, 1 mg/kg) was 1.44 h. For the same compound, the “plasma concentration between approximately 6 and 8 hours” value ([3]; rat, single i.v., nicotine 0.4 mg/kg, anatabine 0.1 mg/kg) was “below the limits of quantitation”.
